Reference: PubChem BioAssay AID248 (DTP/NCI, 2004)
Values joined by “and” are separate entries in the source; they are usually repeats but may differ in a detail not shown here. Equal entries are not always repeated. Inconclusive results and toxic doses are left out. Cut-off read from the data, not from the text of the source: active = T/C of 150% or more; inactive = T/C below 125%.

System: L1210 leukemia ip in BDF1 mice, survival T/C
Experiment: NCI In Vivo Anticancer Drug Screen. Data for tumor model L1210 Leukemia (intraperitoneal) in B6D2F1 (BDF1) mice
Conditions: endpoint: mean survival time, higher = longer survival
In short: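 In this screen, tumor-bearing mice given compound are compared to those given vehicle, and their survival values are reported as a treated-to-control quotient.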

[1] = dose: 50.0 mg/kg/injection, schedule: Q01DX001 (ip), vehicle: Klucel (hydroxypropylcellulose) (HPC)
[2] = dose: 100.0 mg/kg/injection, schedule: Q01DX001 (ip), vehicle: Klucel (hydroxypropylcellulose) (HPC)
[3] = dose: 200.0 mg/kg/injection, schedule: Q01DX001 (ip), vehicle: Klucel (hydroxypropylcellulose) (HPC)
[4] = dose: 50.0 mg/kg/injection, schedule: Q01DX009 (ip), vehicle: saline with Tween-80
[5] = dose: 100.0 mg/kg/injection, schedule: Q01DX009 (ip), vehicle: saline with Tween-80
[6] = dose: 200.0 mg/kg/injection, schedule: Q01DX009 (ip), vehicle: saline with Tween-80
[7] = dose: 100.0 mg/kg/injection, schedule: Q01DX001 (ip), vehicle: saline with Tween-80
[8] = dose: 200.0 mg/kg/injection, schedule: Q01DX001 (ip), vehicle: saline with Tween-80

Measured: T/C

CN(N=O)C(=O)NCc1ccc(Cl)cc1
inactive: dose: 9.0 mg/kg/injection, schedule: Q01DX Z (ip), vehicle: carboxymethylcellulose (CMC) 108 % of control | dose: 18.0 mg/kg/injection, schedule: Q01DX Z (ip), vehicle: carboxymethylcellulose (CMC) 91 % of control | dose: 37.0 mg/kg/injection, schedule: Q01DX Z (ip), vehicle: carboxymethylcellulose (CMC) 101 % of control | dose: 75.0 mg/kg/injection, schedule: Q01DX Z (ip), vehicle: carboxymethylcellulose (CMC) 111 % of control | dose: 100.0 mg/kg/injection, schedule: Q01DX Z (ip), vehicle: carboxymethylcellulose (CMC) 109 % of control | dose: 150.0 mg/kg/injection, schedule: Q01DX Z (ip), vehicle: carboxymethylcellulose (CMC) 118 % of control | dose: 200.0 mg/kg/injection, schedule: Q01DX Z (ip), vehicle: carboxymethylcellulose (CMC) 119 % of control

NCc1cc[n+]([O-])cc1
inactive: dose: 25.0 mg/kg/injection, schedule: Q04DX002 (ip), vehicle: saline 102 % of control | dose: 50.0 mg/kg/injection, schedule: Q04DX002 (ip), vehicle: saline 102 % of control | dose: 100.0 mg/kg/injection, schedule: Q04DX002 (ip), vehicle: saline 102 % of control | dose: 400.0 mg/kg/injection, schedule: Q04DX002 (ip), vehicle: saline 88 % of control

NC(=O)C(F)(F)C(F)(F)C(F)(F)F
inactive: [1] 97 % of control | [2] 97 % of control | [3] 103 % of control

C=CCOc1ccccc1OC
inactive: [4] 96 % of control | [5] 100 % of control | dose: 100.0 mg/kg/injection, schedule: Q04DX003 (ip), vehicle: saline with Tween-80 103 % of control | [6] 95 % of control | dose: 200.0 mg/kg/injection, schedule: Q04DX003 (ip), vehicle: saline with Tween-80 112 % of control

CC1(C)N=C(N)N=C(N)N1c1cccc(OCCC#N)c1
inactive: dose: 25.0 mg/kg/injection, schedule: Q04DX003 (ip), vehicle: saline 112 % of control | dose: 50.0 mg/kg/injection, schedule: Q04DX003 (ip), vehicle: saline 108 % of control | dose: 100.0 mg/kg/injection, schedule: Q04DX003 (ip), vehicle: saline 100 % of control and 104 % of control

COc1ccc(CN2CCCN(Cc3ccc(OC)cc3)C2c2cc(Br)c(OC)c(OC)c2)cc1
inactive: dose: 100.0 mg/kg/injection, schedule: Q01DX001 (ip), vehicle: acetone 94 % of control | dose: 200.0 mg/kg/injection, schedule: Q01DX001 (ip), vehicle: acetone 94 % of control | dose: 400.0 mg/kg/injection, schedule: Q01DX001 (ip), vehicle: acetone 94 % of control

Cc1ccc(-n2c(O)c(N=Nc3ccc(Cl)cc3)c(=O)n(-c3ccc(Cl)cc3)c2=S)cc1
inactive: [1] 100 % of control | [2] 105 % of control | [3] 95 % of control

CCOC(=O)C(CCC(=O)OC)C1=NC(C)(C)CC(C)O1 (stereo not drawn)
inactive: [2] 106 % of control | [3] 110 % of control | dose: 400.0 mg/kg/injection, schedule: Q01DX001 (ip), vehicle: Klucel (hydroxypropylcellulose) (HPC) 97 % of control

O=c1[nH]c2sccc2c(=O)n1OS(=O)(=O)c1ccccc1
inactive: dose: 100.0 mg/kg/injection, schedule: Q01DX009 (ip), vehicle: Klucel (hydroxypropylcellulose) (HPC) 105 % of control | dose: 200.0 mg/kg/injection, schedule: Q01DX009 (ip), vehicle: Klucel (hydroxypropylcellulose) (HPC) 122 % of control | dose: 400.0 mg/kg/injection, schedule: Q01DX009 (ip), vehicle: Klucel (hydroxypropylcellulose) (HPC) 93 % of control

NC(=O)c1cc(Cl)cc(N)c1Cl
inactive: [7] 107 % of control | [8] 104 % of control | dose: 400.0 mg/kg/injection, schedule: Q01DX001 (ip), vehicle: saline with Tween-80 117 % of control

CCCC(C)C(=O)OCP(=O)(COC(=O)C(C)CCC)COC(=O)C(C)CCC (stereo not drawn)
inactive: [7] 97 % of control | [8] 89 % of control

O=c1ccc2ccccc2[nH]1.[Mn]
inactive: dose: 5.0 mg/kg/injection, schedule: Q01DX001 (ip), vehicle: carboxymethylcellulose (CMC) 95 % of control | dose: 10.0 mg/kg/injection, schedule: Q01DX001 (ip), vehicle: carboxymethylcellulose (CMC) 95 % of control | dose: 20.0 mg/kg/injection, schedule: Q01DX001 (ip), vehicle: carboxymethylcellulose (CMC) 97 % of control | dose: 40.0 mg/kg/injection, schedule: Q01DX001 (ip), vehicle: carboxymethylcellulose (CMC) 97 % of control

O=S(=O)(F)c1cccc(C[P+](c2ccccc2)(c2ccccc2)c2ccccc2)c1
inactive: dose: 25.0 mg/kg/injection, schedule: Q01DX009 (ip), vehicle: saline with Tween-80 95 % of control | [4] 101 % of control | dose: 100.0 mg/kg/injection, schedule: Q04DX003 (ip), vehicle: acetone 94 % of control

O=C(O)/C=C/c1c2ccc(=O)c(O)c-2oc2c(O)c(O)ccc12
inactive: dose: 10.0 mg/kg/injection, schedule: Q04DX003 (ip), vehicle: other 94 % of control | dose: 20.0 mg/kg/injection, schedule: Q04DX003 (ip), vehicle: other 98 % of control | dose: 40.0 mg/kg/injection, schedule: Q04DX003 (ip), vehicle: other 88 % of control | dose: 50.0 mg/kg/injection, schedule: Q04DX003 (ip), vehicle: other 106 % of control | dose: 80.0 mg/kg/injection, schedule: Q04DX003 (ip), vehicle: other 89 % of control | dose: 100.0 mg/kg/injection, schedule: Q04DX003 (ip), vehicle: other 107 % of control

CC(Cc1ccccc1)NN (stereo not drawn)
inactive: dose: 3.9 mg/kg/injection, schedule: Q01DX009 (ip), vehicle: saline 93 % of control | dose: 7.81 mg/kg/injection, schedule: Q01DX009 (ip), vehicle: saline 96 % of control | dose: 15.62 mg/kg/injection, schedule: Q01DX009 (ip), vehicle: saline 93 % of control | dose: 15.62 mg/kg/injection, schedule: Q04DX003 (ip), vehicle: saline 107 % of control | dose: 31.25 mg/kg/injection, schedule: Q04DX003 (ip), vehicle: saline 98 % of control | dose: 62.5 mg/kg/injection, schedule: Q04DX003 (ip), vehicle: saline 104 % of control

CCOP(=O)(OCC)OC(C)CC (stereo not drawn)
inactive: dose: 100.0 mg/kg/injection, schedule: Q04DX002 (ip), vehicle: saline with Tween-80 109 % of control | dose: 200.0 mg/kg/injection, schedule: Q04DX002 (ip), vehicle: saline with Tween-80 103 % of control | dose: 400.0 mg/kg/injection, schedule: Q04DX002 (ip), vehicle: saline with Tween-80 106 % of control

C[N+](C)(C)CCCCCCCCCC[N+](C)(C)C
inactive: dose: 0.39 mg/kg/injection, schedule: Q04DX003 (ip), vehicle: saline with Tween-80 99 % of control | dose: 0.78 mg/kg/injection, schedule: Q04DX003 (ip), vehicle: saline with Tween-80 95 % of control | dose: 1.56 mg/kg/injection, schedule: Q04DX003 (ip), vehicle: saline with Tween-80 92 % of control

NC(=O)NC(=O)NCc1ccccc1
inactive: dose: 100.0 mg/kg/injection, schedule: Q04DX002 (ip), vehicle: Klucel (hydroxypropylcellulose) (HPC) 98 % of control | dose: 200.0 mg/kg/injection, schedule: Q04DX002 (ip), vehicle: Klucel (hydroxypropylcellulose) (HPC) 94 % of control | dose: 400.0 mg/kg/injection, schedule: Q04DX002 (ip), vehicle: Klucel (hydroxypropylcellulose) (HPC) 94 % of control

CNC(=O)O/N=C/c1ccc([N+](=O)[O-])cc1
inactive: dose: 75.0 mg/kg/injection, schedule: Q01DX001 (ip), vehicle: saline 94 % of control | dose: 150.0 mg/kg/injection, schedule: Q01DX001 (ip), vehicle: saline 100 % of control

C/C(=C1/SC(=S)NC1=O)c1ccccc1
inactive: dose: 100.0 mg/kg/injection, schedule: Q01DX001 (ip), vehicle: saline 102 % of control

CSc1ccc(SCCOC(=O)Nc2ccc(Cl)cc2Cl)cc1
inactive: [4] 91 % of control | [5] 93 % of control | [6] 98 % of control
